Assay results: publication PMC6743424, “Phenolic acid phenethylesters and their corresponding ketones: Inhibition of 5‐lipoxygenase and stability in human blood and HepaRG cells” (Pharmacology Research & Perspectives, 2019)
Entries after “also recorded” stand apart in the source; their conditions may differ.

Experiments:
[1] = test system: HepaRG cells; assay: Residual inhibition of 5‐LO product biosynthesis in blood after incubation with HepaRG cells; assay type: in vitro ADME, human; conditions: 50 µmol/L with HepaRG cells, after 60 minutes; medium added to blood, zymosan, LTB4
Experimental: (§1) Differentiated HepaRG cells, plated in 24 well plates, were washed with hepatocyte suspension medium (Williams E‐medium without phenol red, supplemented with 2 mmol/L Glutamax and […] HEPES) before addition of hepatocyte suspension medium (250 µL/well) containing (30 or 50 µmol/L) of the test compounds or their diluent. Cells were then incubated for 7.5, 15, 30, 60 or 90 minutes at 37°C after which the medium was removed.
In experiments where the inhibitory capacity of test compounds was to be determined after incubation with HepaRG cells, 125 µL of the hepatocyte suspension medium containing test compounds that had been collected at different time points from HepaRG cultures was added to 1 mL of heparinized blood. After a 5 minutes of preincubation, blood was then stimulated with opsonized zymosan and processed for HPLC analysis of 5‐LO metabolites as described above.
Figure 6 Stability of the test compounds for the inhibition of the biosynthesis of 5‐LO products following incubation with HepaRG cells. HepaRG cells were incubated with […] of hepatocyte suspension medium containing 50 µmol/L of test compounds for the indicated times at 37°C. Hepatocyte suspension medium (125 µL) was then removed and added to 1 mL of blood that was then incubated for 5 minutes and then stimulated with opsonized zymosan (4 mg/mL) for 30 minutes at 37°C. Blood was then centrifuged and plasma was collected and added to 1.2 mL of CH3OH:CH3CN (1:1). Samples were processed for analysis using RP‐HPLC for LTB4 quantification. Data are expressed as means ± SEM of at least three independent experiments. *Difference from time = 0, as determined using One‐way ANOVA with Dunnett's multiple comparison test (P < .05)

[2] = biological target: T1, 5‐LO (Homo sapiens, UniProt P09917); assay: Biosynthesis of 5‐LO products in stimulated HEK293 cells expressing 5‐LO and FLAP; assay type: cell-based; set-up: expressed in transfected cells; host or cells: HEK293 cells (ATCC), stably transfected; conditions: 1 μmol/L, 5 min preincubation; 10 μmol/L A23187 + 10 μmol/L arachidonic acid 15 min
T1 sequence (P09917 1-674): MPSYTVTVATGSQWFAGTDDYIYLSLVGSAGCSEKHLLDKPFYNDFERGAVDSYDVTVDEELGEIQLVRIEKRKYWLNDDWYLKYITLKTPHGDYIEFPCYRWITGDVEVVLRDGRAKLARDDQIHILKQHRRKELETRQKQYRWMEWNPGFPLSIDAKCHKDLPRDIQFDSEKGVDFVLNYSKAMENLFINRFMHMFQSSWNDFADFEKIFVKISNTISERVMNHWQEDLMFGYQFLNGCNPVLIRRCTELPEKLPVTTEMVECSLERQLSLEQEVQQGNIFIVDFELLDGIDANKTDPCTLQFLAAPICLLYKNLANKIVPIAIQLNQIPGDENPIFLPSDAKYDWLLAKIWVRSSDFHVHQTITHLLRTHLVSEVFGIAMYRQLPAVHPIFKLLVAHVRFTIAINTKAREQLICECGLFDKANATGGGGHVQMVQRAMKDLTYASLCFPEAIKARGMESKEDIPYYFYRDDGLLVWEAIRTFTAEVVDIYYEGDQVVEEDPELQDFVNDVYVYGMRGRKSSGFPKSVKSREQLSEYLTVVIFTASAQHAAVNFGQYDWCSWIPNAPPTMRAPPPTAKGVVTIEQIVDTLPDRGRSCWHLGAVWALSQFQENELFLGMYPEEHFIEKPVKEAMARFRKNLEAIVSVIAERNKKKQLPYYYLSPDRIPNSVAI
Experimental: HEK293 cells were obtained from ATCC (Manassas) and were cultured in Dulbecco’s Modified Eagle Medium (DMEM) supplemented with 10% fetal bovine serum. Cells were stably transfected with 5‐lipoxygenase and 5‐lipoxygenase activating protein (FLAP) as previously described.31
Transfected HEK293 cells were collected and resuspended in Hank's balanced salt solution (HBSS, Lonza) containing 1.6 mmol/L CaCl2 at a concentration of 5 × 10^5 cells/mL, and were preincubated with each compound at concentration of 1 µmol/L for 5 minutes at 37°C. Cells were then stimulated for 15 minutes at 37°C with the addition of 10 µmol/L calcium ionophore A23187 (Sigma‐Aldrich) and 10 µmol/L arachidonic acid (Cayman Chemical).28 Stimulations were stopped by adding 0.5 volume of cold CH3OH:CH3CN (1:1) containing 100 ng/mL of prostaglandin B2 (PGB2) as internal standard. Samples were stored at −20°C and analyzed for 5‐LO products using reversed‐phase high‐performance liquid chromatography (RP‐HPLC) as described previously.32
Figure 2 The structures of the tested compounds (A) and their effects on the biosynthesis of 5‐LO products in transfected HEK293 cells (B). HEK293 cells expressing 5‐LO and FLAP were incubated in presence of the indicated compounds (1 μmol/L) or their diluent (Control, 0.1% DMSO) for 5 minutes, followed by the addition of 10 μmol/L calcium ionophore A23187 and 10 μmol/L arachidonic acid for 15 minutes. Reactions were then stopped, and samples were processed for analysis of 5‐LO products using RP‐HPLC. Total 5‐LO products measured represent the sum of LTB4, its trans isomers and 5‐hydroxyeicosatetraenoic acid. Data are expressed as means ± SEM of at least three independent experiments. *Difference from control as determined using one‐way ANOVA with Dunnett's multiple comparison test (P < .05)

[3] = test system: 5‐LO; conditions: cited from earlier work
[4] = biological target: T1, 5‐LO; assay: Ex vivo whole blood stimulation with opsonized zymosan, 5‐LO products; assay type: cell-based; set-up: endogenous in cells; host or cells: human polymorphonuclear leukocytes isolated from heparinized blood; conditions: 5‐LO product biosynthesis in whole blood, mean (95% confidence interval)
Experimental: Blood was collected in tubes containing heparin as anticoagulant. Test compounds or their diluent control (DMSO, 0.1%) were added to 1 mL of heparinized blood at the indicated concentrations and incubated for 5 minutes in a water bath at 37°C. Stimulation was initiated with the addition of 125 μL of 40 mg/mL of opsonized zymosan, samples were then gently vortexed and incubated at 37°C for 30 minutes.34 Samples were then centrifuged at 960g for 10 minutes at 4°C, plasma was removed and added to tubes containing 4 volumes of CH3OH:CH3CN (1:1) containing 100 ng/mL of PGB2 as internal standard. Samples were stored overnight at −20°C, and then centrifuged at 3300g for 10 minutes. Samples were then purified on C18 cartridges, were eluted with CH3OH, dried under nitrogen, resuspended in 46% of CH3OH:CH3CN (1:1), and analyzed using RP‐HPLC as described above.

[5] = biological target: T1, 5‐LO; assay: Biosynthesis of 5‐LO products in thapsigargin‐stimulated human PMNL; assay type: cell-based; set-up: endogenous in cells; host or cells: human polymorphonuclear leukocytes isolated from heparinized blood; conditions: 5‐LO product biosynthesis in human PMNL; mean (95% confidence interval)
Experimental: Heparinized blood (see Ethics statement) was collected, centrifuged at 200g for 10 minutes to collect plasma, and erythrocytes were sedimented in dextran. PMNL were obtained after centrifugation on a lymphocyte separation medium cushion (density, 1.077 g/mL) (Wisent) at 900 g for 20 minutes, followed by hypotonic lysis to remove residual erythrocytes.33 PMNL were counted and resuspended at 10^7 cells/mL in HBSS supplemented with 1.6 mmol/L CaCl2 and 0.3 U/mL adenosine deaminase (Sigma‐Aldrich). PMNL were preincubated with the test compounds or their diluent (0.1% DMSO) for 5 minutes at 37°C and were then stimulated with 1 µmol/L thapsigargin (Sigma‐Aldrich) for 15 minutes at 37°C.27 Reactions were stopped by adding two volumes of CH3OH:CH3CN (1:1) containing the internal standard PGB2 (100 ng/mL), and samples were processed for RP‐HPLC analysis of 5‐LO products.
(A) The structures of CAPE (2) and its analogues investigated in this study. (B) Isolated human PMNL were incubated in presence of test compounds (1 μmol/L) or their diluent (Control, 0.1% DMSO) for 5 minutes. PMNL were stimulated with 1 μmol/L of thapsigargin for 15 minutes at 37°C. The stimulation was then stopped, and samples were processed for analysis of 5‐LO products using RP‐HPLC. Total 5‐LO products measured represent LTB4, its trans isomers, 20‐OH‐LTB4, 20‐COOH‐LTB4 and 5‐hydroxyeicosatetraenoic acid. Data are expressed as means ± SEM of at least three independent experiments. *Difference from control, as determined using one‐way ANOVA with Dunnett's multiple comparison test (P < .05)

[6] = test system: HepaRG cells; assay: Kinetics of test compound disappearance in HepaRG cell culture (HPLC); assay type: in vitro ADME, human; conditions: 30 µmol/L, 37°C; mean (95% confidence interval), four experiments
Experimental: Undifferentiated cryopreserved HepaRG cells (BioPredic International) were seeded in 12 or 24 well plates at 1.1 × 10^5 and 0.55 × 10^5 cells per well, respectively. Cells were cultured for 14 days in Williams E‐medium supplemented with 1% penicillin‐streptomycin (10 000 U/mL), 10% fœtal bovine serum (FBS), 50 mg/L hydrocortisone hemisuccinate, 5 mg/L insulin and 2 mmol/L Glutamax, and the medium was renewed every 2‐3 days. After 14 days, the culture medium was replaced by the same formulation as above supplemented with 2% dimethyl sulfoxide (DMSO) to induce differentiation. Cells were considered differentiated and ready for experiments after 14 days of differentiation (28 days after seeding).
as §1
In experiments where the test compounds incubated with HepaRG cells were to be measured, the cell layer was washed with 250 µL of hepatocyte suspension medium which was then pooled with the first medium. The mixture was then added to 250 µL of ice cold CH3OH:CH3CN (1:1, vol:vol) containing 10 µmol/L of phenethyl 3,4,5‐trimethoxycinnamate as an internal standard. The resulting solution was frozen at −80°C for 2 hour to precipitate any dissolved proteins, centrifuged at 1800g and the supernatant transferred to vials and stored at −20°C until HPLC analysis.
Figure 5 Kinetics of test compound disappearance in HepaRG cell culture. (A) HepaRG cells were incubated in 250 µL of hepatocyte suspension medium containing 30 µmol/L of test compounds for the indicated times at 37°C. Supernatants were removed and added to 250 µL of ice cold CH3OH:CH3CN (1:1 vol:vol) containing 10 µmol/L of phenethyl 3,4,5‐trimethoxycinnamate as an internal standard. The cell layer was washed with 250 µL of hepatocyte suspension medium and added to the above mixture. Samples were centrifuged at 1900g and the supernatants were collected for HPLC analysis as described in the Methods. Values are means ± SEM. (B) Calculated half‐lives of the test compounds in HepaRG cell cultures. Values are means (95% confidence interval). All data are from four independent experiments TEXT PRINTED IN THE PICTURE: (B) CAPE (2): Half-life (Minutes): 4.70 (4.42 - 5.02) | (B) 7: Half-life (Minutes): 6.42 (5.72 -7.31) | (B) 5: Half-life (Minutes): 3.71 (3.67-3.74) | (B) 8: Half-life (Minutes): 6.48 (6.01-7.04) | (B) 9: Half-life (Minutes): 4.38 (4.23 - 4.55) | (B) 10: Half-life (Minutes): 11.32 (10.21- 12.71)

## CC(c1cc2ccccc2s1)N(O)C(N)=O (stereo not shown) [Zileuton (1), Zileuton, reference compound]
[1]
  Inhibitory activity against 5‐LO product biosynthesis after incubation with HepaRG cells: steady manner over time
[2]
  Inhibition of biosynthesis of 5‐LO products in transfected HEK293 cells: less effective than CAPE (2)

## O=C(C=Cc1ccc(O)c(O)c1)NCCc1ccccc1 [amide analogue of CAPE]
[3]
  Inhibition of LT biosynthesis and 5‐LO activity: reduced potency compared to CAPE

## O=C(O)/C=C/c1ccc(O)c(O)c1 [caffeic acid]
[3]
  Inhibition of LT biosynthesis and 5‐LO activity: poor 5‐LO inhibitor

## O=C(C=Cc1ccccc1)OCCc1ccccc1 [cinnamic acid phenethyl ester]
[3]; at concentrations up to 10 µmol/L
  Inhibition of LT biosynthesis: do not inhibit LT biosynthesis

## O=C(/C=C/c1cccc(O)c1O)OCCc1ccccc1 [compound 3]
[2]
  Inhibition of biosynthesis of 5‐LO products in transfected HEK293 cells: very good inhibitory activity

## O=C(/C=C/c1ccc(O)cc1O)OCCc1ccccc1 [compound 4]
[2]
  Inhibition of biosynthesis of 5‐LO products in transfected HEK293 cells: without measurable effect; also recorded: without inhibitory activity

## O=C(/C=C/c1cc(O)cc(O)c1)OCCc1ccccc1 [compound 6]
[2]
  Inhibition of biosynthesis of 5‐LO products in transfected HEK293 cells: without measurable effect; also recorded: without inhibitory activity

## COc1cc(/C=C/C(=O)OCCc2ccccc2)cc(OC)c1O [compound 9, sinapic acid phenethylester]
[1]
  Inhibitory activity against 5‐LO product biosynthesis after incubation with HepaRG cells: lost all their inhibitory activity
[4]
  IC50: 1910 nM
[5]
  IC50: 290 nM
[6]
  Half-life in HepaRG cell cultures: 4.38 (4.23 - 4.55) Minutes

## O=C(CCc1ccc(O)c(O)c1)OCCc1ccccc1 [saturated form of CAPE (2)]
[3]
  Inhibition of 5‐LO product biosynthesis: as effective
